Source: patent publication US20220389067A1, “Methods of Treating Neurodegenerative Diseases Caused by G4C2 Expansion in C9ORF72” (The Board of Trustees of the Leland Stanford Junior …, priority 2019, published 2022)

Experiments:
GR80 = test: Effect of CAT-tailing inhibition on poly(GR) level; format: cell-based; details: FIG. 82
From the text: Ribosome-stalled NPC is modified by a non-templated, 40S-independent CAT-tailing process that depends on Tae2/Clbn/NEMF family proteins. CAT-tailed substrates escaping the quality control system can accumulate and form aggregates. […] Consistently, RNAi of a fly homolog of Vms1, a stress-responsive mitochondrial RQC factor that antagonizes CAT-tailing by cleaving peptidyl-tRNA bond, increased high MW GR80 signal and total GR80 abundance (FIG. 77), whereas overexpression of mammalian Vms1 (ANKZF1) had opposite effect (FIG. 78). In C9ALS fibroblasts, ANKZF1 RNAi increased, whereas NEMF RNAi decreased poly(GR) (FIG. 78). Thus steady-state poly(GR) level is positively correlated with a CAT-tailing-like process.
The role of Ala- or Thr-tRNA synthetase (AARS or TARS) was examined. […] The specificity of the ARS effect was shown by the lack of effect of the other ARSs tested (FIG. 79). Thus AARS/TARS, and possibly select other ARSs (e.g., IARS), appear to be involved in GR80 CAT-tailing, and that CAT-tailing confers stabilization, aggregation, and toxicity. Further supporting this notion, poly(GR) containing an artificial CAT-tail (GR71-AT15) formed prominent aggregates on mitochondria on its own, and its level was not affected by NEMF RNAi or anisomycin treatment (FIG. 82).

[1] = test system: C9ALS/FTD BAC transgenic mice (C9-500); test: Rotarod assay in C9-500 BAC transgenic mice; format: in vivo, mouse; details: C9-500 mice, i.p. 40 mg/kg/day, FIG. 95
Procedure: (§1) Non-canonical Notch regulation of poly(GR) was then tested in mammalian cells. In HEK293T cells, overexpression of Notch (FIG. 91), or treatment of cells with the ATK activator SC79 (FIGS. 91 & 92) reduced Flag-GR80 level, whereas small molecule inhibitor of AKT (AKTi) or VCP (VCPi) increased Flag-GR80 level (FIG. 93). Similar to fly tissue, the Notch overexpression effect was blocked by VCPi (FIG. 91). […] On the other hand, AKTi or VCPi increased poly(GR) level (FIGS. 78 & 94). To further test the in vivo relevance, the C9ALS/FTD BAC transgenic mice (C9-500) were examined, which express a human C9orf72 gene with ˜500 G4C2 repeats. Treatment of C9-500 mice by i.p. injection of SC79 (40 mg/kg/day) improved motor behavior as detected with the rotarod assay (FIG. 95). This was correlated with rescue of muscle mitochondrial morphology (FIGS. 95 & 96) and reduction of poly(GR) (FIGS. 97 & 98) but not poly(GA) (FIGS. 98 & 99) levels in muscle tissue. […]
Female C9-500 BAC transgenic mice were i.p. injected with sc79 (Selleckchem) at 40 mg/kg/day (n=10) or vehicle (DMSO [Sigma]: PEG300 [Spectrum]: 2-Hydroxypropyl-beta-cyclodextran (20%) [Sigma] at 1:3:1) (n=8) from 16 weeks of age and continued for 3 months. […] Once all the mice were “ready”, the start button was pushed and the test began. […] The fall-off times of each animal were recorded and used for statistical analysis.

patient fibroblasts = test: poly(GR) level and mitochondrial morphology in patient fibroblasts (AKT/VCP modulation); format: cell-based, human
[2] = test system: muscle tissue of C9-500 mice; test: Muscle mitochondrial morphology and DPR levels in C9-500 mice; format: in vivo, mouse; details: i.p. 40 mg/kg/day
Procedure: as §1
Female C9-500 BAC transgenic mice were i.p. injected with sc79 (Selleckchem) at 40 mg/kg/day (n=10) or vehicle (DMSO [Sigma]: PEG300 [Spectrum]: 2-Hydroxypropyl-beta-cyclodextran (20%) [Sigma] at 1:3:1) (n=8) from 16 weeks of age and continued for 3 months. […] Once all the mice were “ready”, the start button was pushed and the test began. […] The fall-off times of each animal were recorded and used for statistical analysis. […]

[3] = test system: Flag-GR80 in HEK293T cells; test: Flag-GR80 level in HEK293T cells (non-canonical Notch/AKT/VCP modulation); format: cell-based; details: FIGS. 91-93
[4] = test system: HEK293 cells transfected with GR80; test: mito-K+ in HEK293 cells transfected with GR80; format: cell-based; details: HEK293 cells transfected with GR80, FIG. 53
Procedure: (§2) Finally, it was tested whether the pathogenic mechanisms uncovered in flies are relevant to GR toxicity in patient cells. In fibroblasts from C9-ALS/FTD patients carrying C9ORF72 G4C2 repeat expansion, GR was present in the mitochondrial fraction, as shown by dot blot (FIG. 46) and immunostaining (FIG. 46), although nuclear GR was also detected (FIG. 46). […] Thus, altered mitochondrial inner membrane structure and ion homeostasis are conserved features of C9-ALS. There were also GR interactions with Mic27/Apool in patient fibroblasts (FIG. 49). Nigericin treatment (FIGS. 50 & 51) or knockdown of key MICOS components (FIGS. 49 & 52) rescued the mitochondrial defects in patient fibroblasts. […] Nigericin treatment (FIG. 54) or knockdown of key MICOS components (FIG. 53) reduced the GR level in patient cells, but nigericin had no effect on the GA level (FIG. 53).

GR80 fly muscle = test: Nigericin treatment of GR80 transgenic flies; format: in vivo, Drosophila
From the text: To further test whether high MMP and altered ion homeostasis contribute to GR80 toxicity, GR80 flies we treated with nigericin, a K^+/H^+ antiporter that can re-balance mitochondrial matrix ion levels. […] Moreover, the aberrant interactions between MICOS subunits caused by GR80 (FIG. 42) and the elevated mito-K^+ in GR80 flies were rescued after nigericin treatment (FIGS. 41 & 42). Thus, by restoring mitochondrial ion homeostasis, nigericin may affect the MICOS structure and, in turn, GR80 stability, similar to the effects of the genetic manipulation of MICOS, although other mechanisms of nigericin action cannot be excluded.
Newly hatched flies were collected and placed into vials with instant fly food (Carolina Biological Supply Company, USA) mixed with different doses ([…]) of Nigericin (Cayman Chemical, 11437) from the stock solution (50 mM dissolved in DMSO). The flies were fed for 7 days and changed with fresh vial every 24 hours. After treatments, fly thoracic samples were harvested and used for sample preparation.

[5] = test system: fibroblasts from C9-ALS/FTD patients carrying C9ORF72 G4C2 repeat expansion; test: Nigericin treatment of C9-ALS/FTD patient fibroblasts; format: cell-based, human
Procedure: as §2

SMILES: COc1ccc(C[C@H]2NC[C@H](O)[C@H]2OC(C)=O)cc1 [Anisomycin, anisomycin]
- level of poly(GR) containing an artificial CAT-tail (GR71-AT15) (GR80): not affected

SMILES: CCOC(=O)C1=C(N)Oc2ccc(Cl)cc2C1C(C#N)C(=O)OCC (centres unmarked) [SC79]
- motor behavior as detected with the rotarod assay [1]: improved
- mitochondrial morphology (patient fibroblasts; FIG. 93): rescued
- poly(GR) level (patient fibroblasts; FIGS. 78 & 94): significantly reduced
- muscle mitochondrial morphology ([2]; FIGS. 95 & 96): rescue
- poly(GR) level in muscle tissue ([2]; FIGS. 97 & 98): reduction
- Flag-GR80 level [3]: reduced

SMILES: CO[C@@H]1C[C@@H](C[C@H]2CC[C@H](C)[C@H]([C@@H](C)C(=O)O)O2)O[C@]2(O[C@](C)([C@H]3CC[C@@](C)([C@@H]4O[C@@H]([C@H]5O[C@@](O)(CO)[C@H](C)C[C@@H]5C)C[C@@H]4C)O3)C[C@H]2C)[C@@H]1C [nigericin]
- GR-induced mito-K+ increase [4]: reduced
- GR80 level in fly muscle (GR80 fly muscle; GR80 flies, FIG. 44): significantly reduced
- mitochondrial morphology (GR80 fly muscle; GR80 flies, low concentrations of nigericin in food, FIG. 43): effectively restored
- GR80 fly wing-posture defect (GR80 fly muscle; GR80 flies, nigericin in food, FIG. 44): rescue
- aberrant interactions between MICOS subunits caused by GR80 (GR80 fly muscle; after nigericin treatment, FIG. 42): rescued
- elevated mito-K+ in GR80 flies (GR80 fly muscle; after nigericin treatment, FIGS. 41 & 42): rescued
- GA80 level (GR80 fly muscle; flies, specificity control, FIG. 42): did not affect
- GR level in patient cells ([5]; C9-ALS/FTD patient fibroblasts, FIG. 54): reduced
- mitochondrial defects in patient fibroblasts ([5]; C9-ALS/FTD patient fibroblasts, FIGS. 50 & 51): rescued
- GA level ([5]; patient cells, FIG. 53): no effect
